“And” between values parts separate entries of the source, which are not always exact repeats. Identical values can stand only once.

In one test the target is Aβ1-42 (Homo sapiens, UniProt P05067). The test is described as follows: FRET assay of Aβ1-42 oligomer (ADDL) assembly inhibition. It is filed as biochemical. Particulars: 0.2 μM FITC-Aβ(1-42) and 0.8 μM Aβ(1-42), 37° C., six concentrations from about 10 μM to about 0.03 μM. The method in brief: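 Fluorescein-quenching FRET read with 0.2 μM FITC-Aβ(1-42) plus 0.8 μM Aβ(1-42) in 25 mM MOPS-Tris pH 8.0, 100 mM MgCl2, 37° C. Compound tested at six concentrations from about 10 μM down to about 0.03 μM. Fluorescence read every five minutes over about three hours; inhibition seen as absent or attenuated quenching.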
Sequence of Aβ1-42 (P05067 672-713 limits assumed): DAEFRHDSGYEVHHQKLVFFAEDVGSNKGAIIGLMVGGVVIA

The target in the next test is T1, Aβ1-42 ADDLs (Homo sapiens, UniProt P05067).
T1 construct: Synthetic Aβ1-42 powder was dissolved in 1,1,1,3,3,3-hexafluorisopropanol (HFIP)
T1 sequence (P05067 672-713 limits assumed): as above
The test is described as follows: Alternating Lever Cyclic Ratio (ALCR) rat model. It is filed as in vivo. To be noted: for Approach Errors / Perseveration Errors: injection via cannula into lateral ventricle, compared to baseline error rates. Here is the method: Preparations of Aβ1-42 ADDLs and a potential therapeutic compound under the Alternating Lever Cyclic Ratio (ALCR) rat model of AD were tested to show in vivo efficacy. This highly sensitive model has been able to detect cognitive deficits due to direct injection of cell-derived Aβ oligomers into rat brain. Using this technique, a direct injection of ADDLs made from synthetic Aβ1-42 and a putative therapeutic compound under the ALCR procedure were tested.
In this task, rats learned a complex sequence of lever-pressing requirements in order to earn food reinforcement in a two-lever experimental chamber. Subjects alternated between two levers by switching to the other lever after pressing the first lever enough to get food reward. The exact number of presses required for each food reward changed, first increasing from 2 responses per food pellet up to 56 presses per food pellet, then decreasing back to 2 responses per pellet. Intermediate values were based on the quadratic function, x^2−x. One cycle was an entire ascending and descending sequence of these lever press requirements (e.g., 2, 6, 12, 20, 30, 42, 56, 56, 42, 30, 20, 12, 6, and 2 presses per food reward). Six such full cycles were presented during each daily session.
Synthetic Aβ1-42 powder was dissolved in 1,1,1,3,3,3-hexafluorisopropanol (HFIP) to afford a solution of Aβ1-42 in HFIP of about 1 mM and allowed to incubate at ambient temperature for about 1 h. The resulting solution was chilled on ice for about 5-10 min, then aliquoted into eppendorf tubes to provide about 50 μL of solution per tube. The tubes were then placed in a chemical fume hood and allowed to stand overnight to allow the HFIP to evaporate under a slow stream of nitrogen. To remove final traces of HFIP, the tubes were subjected to two SpeedVac cycles of 15 min at room temperature and about 15 to 25 mm Hg of vacuum. The resulting films of monomerized Aβ1-42 peptide were stored over desiccant at −80° C. until used.
A tube of monomerized Aβ1-42 peptide was warmed to room temperature and the Aβ1-42 peptide was dissolved in anhydrous DMSO to afford a peptide stock DMSO solution containing about 10 μM to about 100 μM Aβ1-42 peptide in DMSO.
The concentration of the test compound is listed below in Table 3.
For the Aβ1-42 peptide only treatment, peptide stock DMSO solution was added to 37° C. neural basal to obtain the requisite Aβ1-42 peptide monomer concentration, provided that the maximum concentration of DMSO is 1% or less, and the tube was vortexed for 30 to 60 seconds, spun down briefly in a microfuge and incubated at 37° C. for 15 min prior to the start of injections.
For the Aβ1-42 peptide plus test compound treatment, peptide stock DMSO solution was added to 37° C. compound neural basal media solution to obtain the requisite Aβ1-42 peptide monomer concentration, provided that the maximum concentration of DMSO is 1% or less, and the tube was vortexed for 30 to 36 seconds, spun down briefly in a microfuge and incubated at 37° C. for 15 min prior to the start of injections.
For control injections, compound neural basal media solution was incubated at 37° C. for 15 min prior to the start of injections.
Rats: Rats are trained under ALCR until their error rates are stable. Once the rats are placed upon the final ALCR procedure, training sessions are conducted 7 days each week until the end of the study.
Surgery: All rats received a single 28 gauge cannula, which was permanently affixed to the skull, and aimed at the lateral ventricle. Half of the rats received cannula in the right ventricle and half receive cannula in the left ventricle. Rats were allowed 5 days to recover from surgery before training resumed.
Injection of Test Material and ALCR Testing: Test were conducted about every fourth day. Animals received a 10-20 μL injection of control, peptide, or peptide plus compound solutions via the implanted cannula over about 3 to 4 minutes. Animals were tested about 3 hours following injection. […]

Setting [1] is: 1 nM ADDLs + 2 μM compound, rats tested about 3 hours after injection.
Setting [2] is: 2 μM compound alone (no ADDLs), rats.
[3] abbreviates: 27 nM Aβ1-42 monomer alone, rats.

Consider `O=C(C/C(=N/NC(=O)c1ccccc1O)C(F)(F)F)c1cccs1` [Compound 2, 2-hydroxy-N′-(1,1,1-trifluoro-4-oxo-4-(thiophen-2-yl)butan-2-ylidene)benzohydrazide], for which the IC50 against Aβ1-42 worked out at 4.5 µM. Also, at Aβ1-42 ADDLs (setting [1]), the “Approach Errors” value was found to be 115% and the “Perseveration Errors” value worked out at 105%. For the same molecule, at Aβ1-42 ADDLs (setting [2]), the “Approach Errors” value stood at 92% and the “Perseveration Errors” value amounted to 85%. For the same molecule, the “Perseveration error (in words)” value at Aβ1-42 ADDLs (ADDLs injected along with compound, rats) is “decreased significantly”.
As to “ADDLs: amyloid beta-derived diffusable ligands: soluble, oligomeric, globular, non-fibrillar, neurotoxic Aβ1-42 peptides, made from synthetic Aβ1-42 [reference compound]”, in the test with Aβ1-42 ADDLs (1 nM ADDLs alone, rats), the “Approach Errors” value was 102% and 142%; the “Perseveration Errors” value is 133% and 127%. The “Perseveration error (in words)” value in the test with Aβ1-42 ADDLs (ADDLs compared to vehicle or Aβ1-42 monomer alone, rats) is recorded as “increased the Perseveration error”.
As for “Aβ1-42 Monomer: monomerized synthetic Aβ1-42 peptide [reference compound]”, in the test with Aβ1-42 ADDLs (setting [3]), the “Approach Errors” value came to 105% and the “Perseveration Errors” value was found to be 117%.

As usually defined, the IC50 is the concentration needed to halve the response being measured. Low readings indicate higher potency, high ones lower potency.

For the origin of these results see patent US20110098309A1, “METHODS OF INHIBITING THE FORMATION OF AMYLOID-BETA DIFFUSABLE LIGANDS USING ACYLHYDRAZIDE COMPOUNDS” (priority 2007, published 2011).
